# Laboratory results published in ChEMBL document CHEMBL4184270, “Diastereoselective synthesis of fused cyclopropyl-3-amino-2,4-oxazine β-amyloid cleaving enzyme (BACE) inhibitors and their biological evaluation” (Bioorg Med Chem Lett, 2018).
# Key:
# [1] = Dissociation constant, pKa of the compound by UV spectrophotometric method; assay type: physicochemical
# [2] = Apparent permeability in pig LLC-PK1 cells; assay type: ADME, cell-based, Sus scrofa
# [3] = Apparent intrinsic clearance in human liver microsomes at 1 uM; assay type: ADME, microsome; conditions: read-out: CLH(app)
# [4] = Apparent intrinsic clearance in rat liver microsomes at 1 uM; assay type: ADME, microsome; conditions: read-out: CLH(app)
# [5] = Plasma concentration in Crl:CD(SD) rat at 10 mg/kg, po administered as single dose via gavage measured after 4 hrs; assay type: ADME, organism-based
# [6] = Unbound plasma concentration in Crl:CD(SD) rat at 10 mg/kg, po administered as single dose via gavage measured after 4 hrs; assay type: ADME, organism-based; conditions: in vivo
# [7] = Drug level in Crl:CD(SD) rat CSF at 10 mg/kg, po administered as single dose via gavage measured after 4 hrs; assay type: ADME, organism-based, Cerebrospinal fluid; conditions: read-out: Drug uptake
# [8] = Drug level in Crl:CD(SD) rat brain at 10 mg/kg, po administered as single dose via gavage measured after 4 hrs; assay type: ADME, organism-based; conditions: read-out: Drug uptake
pKa [1],Papp [2] [×10⁻⁶ cm/s],microsomal CLint at 1 µM [3] [µL/min/mg],microsomal CLint at 1 µM [4] [µL/min/mg],concentration at 4 h [5] [nM],Cp(f) [6] [nM],concentration at 4 h [7] [nM],concentration at 4 h [8] [nM],Compound
9.8,3.4,< 14,52,,,,,COc1cnc(C(=O)Nc2ccc(F)c([C@]3(C)CCOC(N)=N3)c2)cn1
8.8,2.5,162,,,,,,COc1cnc(C(=O)Nc2ccc(F)c([C@@]3(C)N=C(N)O[C@H]4C[C@H]43)c2)cn1
9.3,1.8,105,30,2300,920,210,1100,COc1cnc(C(=O)Nc2ccc(F)c([C@@]3(C)N=C(N)O[C@@H]4C[C@@H]43)c2)cn1
